Source: ChEMBL document CHEMBL4304785, “Recent advances of analogues of curcumin for treatment of cancer” (Eur J Med Chem, 2019)
Each block holds one molecule with its values, some of them ahead of it.

Columns and labels:
SK-OV-3 [1] = experiment: Induction of apoptosis in human SKOV3 cells at 40 umol/L after 48 hrs by annexin-V-FITC/propidium iodide staining-based flow cytometric method relative to control; format: functional
HT-1080 [2] = experiment: Decrease in UPA expression in human HT1080 cells; format: functional, cell-based
MDA-MB-231 = experiment: Increase in MMP3 level in human MDA-MB-231 cells after 24 hrs by ELISA; format: functional, cell-based; settings: MDA-MB-231, 24 h
SK-OV-3 [3] = experiment: Induction of apoptosis in human SKOV3 cells at 80 umol/L after 48 hrs by annexin-V-FITC/propidium iodide staining-based flow cytometric method relative to control; format: functional
SK-OV-3 [4] = experiment: Induction of apoptosis in human SKOV3 cells at 20 umol/L after 48 hrs by annexin-V-FITC/propidium iodide staining-based flow cytometric method relative to control; format: functional
MCF7R [5] = experiment: Cytotoxicity against human MCF7/R cells at 10 uM after 72 hrs by MTS assay relative to control; format: functional
MCF7R [6] = experiment: Cytotoxicity against human MCF7/R cells after 72 hrs in presence of curcumin by MTS assay relative to control; format: functional
A549 = experiment: Cell cycle arrest in human A549 cells by propidium iodide staining-based flow cytometric method; format: functional
U-937 = experiment: Induction of apoptosis in human U937 cells relative to control; format: functional, cell-based
HT-1080 [7] = experiment: Antioxidant activity in human HT1080 cells at 100 umol/L by measuring TBARS level by spectrophotometric method relative to control; format: functional
3LL cell line = experiment: Induction of apoptosis in mouse 3LL cells relative to control; format: functional, cell-based
HepG2 [8] = experiment: Induction of apoptosis in human HepG2 cells relative to control; format: functional, cell-based
HL-60 = experiment: Induction of apoptosis in human HL60 cells relative to control; format: functional, cell-based
DU-145 = experiment: Cell cycle arrest in human DU145 cells by propidium iodide staining-based flow cytometric method; format: functional
KB = experiment: Cell cycle arrest in human KB cells by propidium iodide staining-based flow cytometric method; format: functional
MCF7 = experiment: Cell cycle arrest in human MCF7 cells by propidium iodide staining-based flow cytometric method; format: functional
[9] = Induction of apoptosis in human SNUC5 cells relative to control; format: functional, cell-based
NCI-H460 = experiment: Antiproliferative activity against human H460 cells by MTT assay; format: functional, cell-based
U-251 = experiment: Antiproliferative activity against human U251 cells by MTT assay; format: functional, cell-based
L02 = experiment: Antiproliferative activity against human HL7702 cells by MTT assay; format: functional, cell-based
SGC-7901 = experiment: Antiproliferative activity against human SGC7901 cells by MTT assay; format: functional, cell-based
CHO-K1 = experiment: Cytotoxicity against CHOK1 cells by MTT/SRB assay; format: functional, cell-based; settings: Cricetulus griseus
HT-29 [10] = experiment: Cytotoxicity against human HT-29 cells by MTT/SRB assay; format: functional, cell-based
HepG2 [11] = experiment: Cytotoxicity against human HepG2 cells by MTT/SRB assay; format: functional, cell-based
Caco-2 [12] = experiment: Cytotoxicity against human Caco2 cells by MTT/SRB assay; format: functional, cell-based
SW480 = experiment: Cytotoxicity against human SW480 cells after 4 hrs by MTT assay; format: functional, cell-based; settings: SW480, 4 h
WiDr = experiment: Cytotoxicity against human WiDr cells after 4 hrs by MTT assay; format: functional, cell-based
KM12 = experiment: Cytotoxicity against human KM12 cells after 4 hrs by MTT assay; format: functional, cell-based; settings: KM12, 4 h
[13] = Cytotoxicity against human SW116 cells after 4 hrs by MTT assay; format: functional, cell-based; settings: SW116, 4 h
HT-29 [14] = experiment: Cytotoxicity against human HT-29 cells after 4 hrs by MTT assay; format: functional, cell-based; settings: HT-29, 4 h
Colon 26 = experiment: Cytotoxicity against mouse Colon 26 cells after 4 hrs by MTT assay; format: functional, cell-based; settings: Colon 26, 4 h, read-out: IC50
Caco-2 [15] = experiment: Cytotoxicity against human Caco2 cells by MTT assay; format: functional, cell-based
[16] = Cytotoxicity against […] cells after 72 hrs by MTT assay; format: functional, cell-based; settings: B16, 72 h
A-431 = experiment: Cytotoxicity against human A431 cells after 72 hrs by MTT assay; format: functional, cell-based; settings: A-431, 72 h
A-375 = experiment: Cytotoxicity against human A375 cells after 72 hrs by MTT assay; format: functional, cell-based; settings: A-375, 72 h
[17] = Cytotoxicity against human BCC cells after 72 hrs by MTT assay; format: functional, cell-based
SCC-25 = experiment: Cytotoxicity against human SCC25 cells after 72 hrs by MTT assay; format: functional, cell-based; settings: SCC-25, 72 h
[18] = molecular target: 72 kDa type IV collagenase (Homo sapiens) (UniProt P08253); experiment: Inhibition of MMP2 (unknown origin)
Chain of 72 kDa type IV collagenase (Homo sapiens) (P08253 110-660 limits assumed): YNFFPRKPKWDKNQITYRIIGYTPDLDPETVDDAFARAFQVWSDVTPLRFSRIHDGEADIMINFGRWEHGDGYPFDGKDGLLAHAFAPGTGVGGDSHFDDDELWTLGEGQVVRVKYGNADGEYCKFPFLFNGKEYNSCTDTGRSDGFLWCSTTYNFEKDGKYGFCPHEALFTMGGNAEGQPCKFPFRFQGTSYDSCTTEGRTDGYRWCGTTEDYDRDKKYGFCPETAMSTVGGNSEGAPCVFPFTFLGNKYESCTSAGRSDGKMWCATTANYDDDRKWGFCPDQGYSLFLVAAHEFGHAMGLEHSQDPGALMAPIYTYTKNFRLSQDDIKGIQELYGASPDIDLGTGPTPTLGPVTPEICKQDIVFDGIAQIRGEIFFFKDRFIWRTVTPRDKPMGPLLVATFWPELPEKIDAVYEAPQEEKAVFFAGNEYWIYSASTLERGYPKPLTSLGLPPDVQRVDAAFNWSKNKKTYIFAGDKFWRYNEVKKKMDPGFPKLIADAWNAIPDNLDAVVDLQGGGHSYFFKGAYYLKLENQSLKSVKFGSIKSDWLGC

IC50 (HT-1080 [2]): 7.5 µM
IC50 (MDA-MB-231): 9 µM
Structure (SMILES): COc1cc(/C=C/C(=O)CC(=O)/C=C/c2ccc(O)cc2)ccc1O
Activity (SK-OV-3 [1]): 51.5%
Activity (SK-OV-3 [3]): 70.7%
Activity (SK-OV-3 [4]): 35.1%

Structure (SMILES): COc1cc(/C=C/c2cc(/C=C/c3ccc(O)c(OC)c3)on2)ccc1O
inhibition at 10 µM (MCF7R [5]): 57.8%
inhibition (INH) (MCF7R [6]): 57.6%

IC50 (A549): 33.5 µM
IC50 (U-937): 39.4 µM
IC50 (3LL cell line): 89.6 µM
IC50 (HepG2 [8]): 119 µM
IC50 (HL-60): 23.7 µM
IC50 (DU-145): 33.2 µM
IC50 (KB): 38.6 µM
IC50 (MCF7): 40.7 µM
IC50 [9]: 129 µM
Structure (SMILES): C/C=C/c1ccc(O)c(OC)c1
Activity (HT-1080 [7]): 70%

IC50 (NCI-H460): 6 µM
IC50 (U-251): 4.5 µM
IC50 (SGC-7901): 6.5 µM
Structure (SMILES): O=C1/C(=C/c2ccccc2F)CNC/C1=C\c1ccccc1F
IC50 (L02): 5.8 µM

Structure (SMILES): O=C(/C=C(O)/C=C/c1c[nH]c2ccccc12)/C=C/c1c[nH]c2ccccc12
IC50 (CHO-K1): 3.3 to 12.1 µM
IC50 (HT-29 [10]): 3.3 to 12.1 µM
IC50 (HepG2 [11]): 3.3 to 12.1 µM
IC50 (Caco-2 [12]): 3.3 to 12.1 µM

Structure (SMILES): COc1cc(/C=C/C(=O)C(Cc2ccc(O)c(OC)c2)C(=O)/C=C/c2ccc(O)c(OC)c2)ccc1O
IC50 (SW480): 4.78 µM
IC50 (WiDr): 7.32 µM
IC50 (KM12): 3.9 µM
IC50 [13]: 7.08 µM
IC50 (HT-29 [14]): 5.42 µM
IC50 (Colon 26): 8.91 µM

Structure (SMILES): CCOC(=O)CCC(=O)Oc1ccc(/C=C/C(=O)/C=C(O)/C=C/c2ccc(OC(=O)CCC(=O)OCC)c(OC)c2)cc1OC
IC50 (Caco-2 [15]): 1.84 µM

Structure (SMILES): COc1cc(CCC(=O)CCCCc2ccccc2)ccc1O
IC50 [16]: 40 µM
IC50 (A-431): 13.3 µM
IC50 (A-375): 23.8 µM
IC50 [17]: 11.3 µM
IC50 (SCC-25): 18.7 µM

INH [18]: > 10 µmol/L
Structure (SMILES): CCCCC[C@H](O)CC(=O)CCc1ccc(O)c(OC)c1
